Test results: patent publication US20070066627A1, “Hydrazone derivatives for combatting harmful insects and arachnids” (priority 2004, published 2007)

Legend:
Assay type in all cases: in vivo
[1] = system: 2-Spotted Spider Mite (tetranychus urticae, OP-Resistant Strain); experiment: 2-spotted spider mite test on Sieva lima bean plants; settings: 120 h, plants dipped, after 5 days, read-out: mortality compared to untreated controls
Protocol: 2.6 2-Spotted Spider Mite (tetranychus urticae, OP-Resistant Strain)
Sieva lima bean plants with primary leaves expanded to 7-12 cm were infested by placing on each a small piece from an infested leaf (with about 100 mites) taken from the main colony. This was done at about 2 hours before treatment to allow the mites to move over to the test plant to lay eggs. The piece of leaf used to transfer the mites was removed. The newly-infested plants were dipped in the test solution and allowed to dry. The test plants were kept under fluorescent light (24 hour photoperiod) at about 25° C. and 20-40% relative humidity. After 5 days, one leaf was removed and mortality counts were made.

[2] = system: Cotton Aphid (aphis gossypii); experiment: Cotton aphid test on cotton cotyledons; settings: 120 h, cotyledons dipped, after 5 days, read-out: mortality in comparison with untreated controls
Text: 2.2 Cotton Aphid (aphis gossypii)
(§1) The active compounds were formulated in 50:50 acetone:water and 100 ppm Kinetic® surfactant.
Cotton plants at the cotyledon stage (one plant per pot) were infested by placing a heavily infested leaf from the main colony on top of each cotyledon. The aphids were allowed to transfer to the host plant overnight, and the leaf used to transfer the aphids was removed. The cotyledons were dipped in the test solution and allowed to dry. After 5 days, mortality counts were made.

[3] = system: Silverleaf Whitefly (bemisia argentifolii); experiment: Silverleaf whitefly test on cotton plants; settings: 72 h, cotyledons dipped, adults, 3 days after treatment, read-out: mortality compared to untreated controls
Protocol: 2.5 Silverleaf Whitefly (bemisia argentifolii)
as §1
Selected cotton plants were grown to the cotyledon state (one plant per pot). The cotyledons were dipped into the test solution to provide complete coverage of the foliage and placed in a well-vented area to dry. Each pot with treated seedling was placed in a plastic cup and 10 to 12 whitefly adults (approximately 3-5 day old) were introduced. The insects were collected using an aspirator and an 0.6 cm, non-toxic Tygon® tubing (R-3603) connected to a barrier pipette tip. The tip, containing the collected insects, was then gently inserted into the soil containing the treated plant, allowing insects to crawl out of the tip to reach the foliage for feeding. The cups were covered with a reusable screened lid (150 micron mesh polyester screen PeCap from Tetko Inc). Test plants were maintained in the holding room at about 25° C. and 20-40% relative humidity for 3 days avoiding direct exposure to the fluorescent light (24 hour photoperiod) to prevent trapping of heat inside the cup. Mortality was assessed 3 days after treatment of the plants.

[4] = system: Orchid Thrips (dichromothrips corbetti); experiment: Orchid thrips floral-immersion test; settings: 96 h, adults, after 4 days, read-out: mortality compared to untreated controls
Protocol: 2.7 Orchid Thrips (dichromothrips corbetti)
Dichromothrips corbetti adults used for bioassay were obtained from a colony maintained continuously under laboratory conditions. For testing purposes, the test compound was diluted to a concentration of 500 ppm (wt compound:vol diluent) in a 1:1 mixture of acetone:water, plus 0.01% Kinetic® surfactant.
Thrips potency of each compound was evaluated by using a floral-immersion technique. Plastic petri dishes were used as test arenas. All petals of individual, intact orchid flowers were dipped into treatment solution for approximately 3 seconds and allowed to dry for 2 hours. Treated flowers were placed into individual petri dishes along with 10-15 adult thrips. The petri dishes were then covered with lids. All test arenas were held under continuous light and a temperature of about 28° C. for duration of the assay. After 4 days, the numbers of live thrips were counted on each flower, and along inner walls of each petri dish. The level of thrips mortality was extrapolated from pretreatment thrips numbers.

[5] = system: Southern Armyworm (Spodoptera eridania), 2nd Instar Larvae; experiment: Southern armyworm leaf-dip test, 2nd instar larvae; settings: foliar, 120 h, observation at 5 days, read-out: mortality in comparison with untreated controls
Protocol: 2.1 Southern Armyworm (Spodoptera eridania), 2nd Instar Larvae
The active compounds were formulated for testing the activity against insects and arachnids as a 10.000 ppm solution in a mixture of 35% acetone and water, which was diluted with water, if needed.
A Sieva lima bean leaf expanded to 78 cm in length is dipped in the test solution with agitation for 3 seconds and allowed to dry in a hood. The leaf is then placed in a 100×10 mm petri dish containing a damp filter paper on the bottom and ten 2nd instar caterpillars. At 5 days, observations are made of mortality, reduced feeding, or any interference with normal molting.

| Compound | mortality at 300 ppm [1] | further results |
| --- | --- | --- |
| CC(C=NNC(=O)Cc1cccc2ccccc12)=Cc1cccc(F)c1 [Compound 21] | > 75% | – |
| O=C(NN=CC=Cc1ccccc1)c1ccc(Cl)s1 [Compound 96] | > 75% | – |
| CC(C=NNC(=O)c1[nH]cnc1C)=Cc1ccc(Cl)cc1Cl [Compound 138] | > 75% | – |
| CC(C=NNC(=O)c1ccccn1)=Cc1ccccc1 [Compound 156] | – | mortality at 300 ppm [2]: > 75%; mortality at 300 ppm [3]: > 80% |
| CC(C=NNC(=O)c1[nH]cnc1C)=Cc1cccc(F)c1 [Compound 144] | – | mortality at 500 ppm [4]: > 95% |
| CC(C=NNC(=O)c1ccc(C)cc1)=Cc1ccccc1 [Compound 183] | > 75% | mortality at 300 ppm [5]: > 80%; mortality at 300 ppm [3]: > 80% |
| CC(C=NNC(=O)c1ccc(C)s1)=Cc1ccc(OC(F)F)cc1 [Compound 91] | > 75% | – |
